Test results: ChEMBL document CHEMBL3286127, “Aminoadamantanes with persistent in vitro efficacy against H1N1 (2009) influenza A” (J Med Chem, 2014)

Experiments:
[1] = Antiviral activity against Influenza A virus (A/California/07/2009(H1N1)) infected in MDCK cells expressing M2 S31N mutant after overnight incubation by fluorescence-based miniplaque assay; type: functional, cell-based
Influenza A virus [2] = assay: Antiviral activity against Influenza A virus (A/Puerto Rico/8/34(H1N1)) infected in MDCK cells expressing M2 V27T/S31N mutant after overnight incubation by fluorescence-based miniplaque assay; type: functional, organism-based, A/Puerto Rico/8/1934(H1N1)
Influenza A virus [3] = assay: Antiviral activity against Influenza A virus A/WS/33(H1N1) infected in MDCK cells expressing M2 S31N mutant after overnight incubation by fluorescence-based miniplaque assay; type: functional, organism-based
[4] = system: Matrix protein 2 (Influenza A virus (A/Udorn/307/1972(H3N2))), P0DOF8 [S31N]; type: cell-based; conditions: Influenza A virus (A/California/08/2009(H1N1)); HEK293; 100 uM

Row | Compound | EC50 [1] | EC50 (Influenza A virus [2]) | EC50 (Influenza A virus [3]) | Activity [4]
1 | CCC1(N)C2CC3CC(C2)CC1C3 (stereo not given) | 25 µM | 1.8 µM | 23 µM | 
2 | CCCC1(N)C2CC3CC(C2)CC1C3 (stereo not given) | 4.7 µM | 0.5 µM | 390 µM | 9.4%
3 | CC(C)CC1(N)C2CC3CC(C2)CC1C3 (stereo not given) | 8 µM | 0.3 µM | 210 µM | 
4 | CCCCC1(N)C2CC3CC(C2)CC1C3 (stereo not given) | 8.5 µM | 0.3 µM | 355 µM | 
5 | NC1C2CC3CC(C2)CC1C3 (stereo not given) | 150 µM | 3.8 µM | 110 µM | 16%
6 | CC1(N)C2CC3CC(C2)CC1C3 (stereo not given) | 54 µM | 0.4 µM | 19 µM | 
7 | NC1(c2ccccc2)C2CC3CC(C2)CC1C3 (stereo not given) | 21 µM | < 0.3 µM | 86 µM | 
8 | NC12CC3CC(CC(C3)C1)C2 [AMANTADINE] | 240 µM | 24 µM | 24 µM | 
9 | CCCCCCC1(N)C2CC3CC(C2)CC1C3 (stereo not given) | 0.13 µM | 0.07 µM | 13 µM | 
10 | CC(N)C12CC3CC(CC(C3)C1)C2 (stereo not given) [RIMANTADINE] | 110 µM | 3.3 µM | 310 µM | 
11 | NC1(Cc2ccccc2)C2CC3CC(C2)CC1C3 (stereo not given) | 8.6 µM | 1.2 µM | 280 µM | 
